Data on three molecules can be found in patent US20170112108A1, “GENETICALLY MODIFIED NON-HUMAN MAMMALS HAVING MODIFIED LIVER CELLS AND/OR TISSUE AND METHODS OF MAKING SAME” (priority 2015, published 2017).

Where two headings read alike, the source gives them in different places.

Series [1] deals with human liver. Conditions: in vivo, cited from earlier work.
The test system of series [2] is rats. Conditions: bosentan-treated rats; cited from earlier work.
Series [3] relates to clinical trial participants. Particulars: of 15 clinical trial participants; cited from earlier work.
Series [4] relates to mice, rats, dogs and primates. Conditions: cited from earlier work.
Series [5] deals with rat liver. The series is described as follows: Serum ALT after GCV in neonatal rats given rAAV-PB-HSVtk and rAAV-PBo. The class given is in vivo. Conditions: 50 mg/kg GCV, 2 injections 2 days apart, 2 weeks after rAAV-PB-HSVtk and rAAV-PBo (5e10 vector genomes each); serum one week later. On the procedure:
20% targeted delivery is insufficient to induce desirable liver damage with ganciclovir (GCV). Three day old neonatal rats were injected with 5e10 vector genomes each of rAAV-PB-HSVtk and rAAV-PBo per animal. Due to the stable integration and expression of suicide gene HSVtk mediated by piggyBac transposon multiple injections of ganciclovir (GCV) can be administered over a prolonged period of time. 2 weeks later, each animal was injected with 50 mg/kg GCV (2 injections, 2 days apart). One week later blood serum was collected and analyzed for elevated ALT levels, which is indicative of liver damage. […] ALT levels in the 200-300 range in desirable prior to transplantation of human hepatocytes.

Take `COc1ccccc1Oc1c(NS(=O)(=O)c2ccc(C(C)(C)C)cc2)nc(-c2ncccn2)nc1OCCO` [Bosentan]: the human-specific hepatotoxicity result is given as “causes hepatotoxicity in a human-specific manner” in series [1] and “known to cause human-specific hepatotoxicity” in series [1] (listed as Bosetan). In addition, the hepatotoxicity in rats result in series [2] is “do not develop hepatotoxicity”.

For `O=c1[nH]c(=O)n([C@@H]2O[C@H](CO)[C@@H](O)[C@@H]2F)cc1I` [FIAU], in series [3], the “participants who developed acute liver failure” value is given as “seven”, the participants who died result is listed as “five” and the “participants who required a liver transplant” value is listed as “two”. For the same molecule, in series [4], the “outcome of preclinical toxicology studies” value is reported as “cleared all preclinical toxicology studies”. In addition, the human-specific hepatotoxicity result in series [1] is “known to cause human-specific hepatotoxicity”.

In the case of `Nc1nc(O)c2ncn(COC(CO)CO)c2n1` [GCV, ganciclovir], in series [5], the “serum ALT levels (liver damage)” value is “normal ALT levels”.
